Assay results reported in patent US4650874A, “N-(aralkoxybenzyl)-4(benzhydryl) piperidines” (G. D. Searle & Co., priority 1984, dated 1987).
Counter-ions that a name gives are not always drawn.

How the values were obtained:
[1] = test system: spontaneously hypertensive rats; assay: Anti-hypertensive activity in the unanesthetized spontaneously hypertensive rat (SHR) assay; type: in vivo; conditions: for minimal effective dose: Rattus norvegicus, read-out: Threshold Dose mg/kg intravenous; for minimal effective dose / Threshold Dose mg/kg intravenous: intravenous; for Oral Activity (Blood Pressure Lowering): intragastrically 50 mg/kg
Method: Male, unanesthetized spontaneously hypertensive rats, 11 to 16 weeks old were used in this test procedure. The compounds to be tested were administered intragastrically at a dose of 50 mg/kg or intraarterially/intravenously at a dose of 10 mg/kg.
Initial mean arterial blood pressure was measured directly via a previously implanted arterial catheter immediately before administration of the test compound. Blood pressure readings were made at 1, 2, 3, and 4 hours following administration of the test compound. […] Statistical comparisons were made using the paired Student's T test with two sided probability calculations.

[2] = biological target: T1, vascular smooth muscle (isolated thoracic aorta segments) (Rattus norvegicus, UniProt P22002); assay: Calcium antagonism in vascular smooth muscle (isolated thoracic aorta segments from male spontaneously hypertensive rats); type: cell-based; conditions: for activity as vascular calcium antagonist (in words): isolated SHR aorta; for Kb: read-out: pA2 (Ca++ Antagonism) (converted)
T1 construct: The excised aorta segment was mounted in a tissue bath containing modified Krebs solution; from tissue; host or cells: thoracic aorta segments of male spontaneously hypertensive rats
Method: Isolated thoracic aorta segments from the male spontaneously hypertensive rat were utilized in this test procedure.
The excised aorta segment was mounted in a tissue bath containing modified Krebs solution. After depolarization of the tissue with potassium (100 mM), calcium, in cumulative concentrations of 1×10^-3 M, 3.2×10^-3 M, and 1×10^-2 M was injected into the bath to produce vascular smooth muscle contraction. The developed tension (in grams) is measured and control dose-response values obtained. After one hour of incubation with a test compound at 1×10^-6 M concentration, the same doses of calcium ions were repeated. The log dose-response curves of the control and after treatment were analyzed by linear regression. The pA2 value was calculated as a measure of calcium antagonism of the test compound. See Van Rossum, J. M., Arch. Int. Pharmacodyn, 143, 299-330, 1963.
Calcium ions play an essential role in induction and maintenance of vascular smooth muscle contractility. In potassium depolarized vascular smooth muscle, calcium antagonists may block the entry of calcium ions into the cell or act by other mechanisms to inhibit the contractions induced by calcium ions. The inhibition of calcium ion - induced contraction of vascular smooth muscle is used to test compounds for vascular calcium antagonism. Cardiovascular diseases such as arrythmias, angina-pectoris, hypertension, and peripheral vascular disease may be casually related to abnormalities in cellular handling of calcium ions.

[3] = 1×10^-6 M, one hour incubation, K+ (100 mM) depolarized SHR aorta

T1 sequence (P22002 whole entry): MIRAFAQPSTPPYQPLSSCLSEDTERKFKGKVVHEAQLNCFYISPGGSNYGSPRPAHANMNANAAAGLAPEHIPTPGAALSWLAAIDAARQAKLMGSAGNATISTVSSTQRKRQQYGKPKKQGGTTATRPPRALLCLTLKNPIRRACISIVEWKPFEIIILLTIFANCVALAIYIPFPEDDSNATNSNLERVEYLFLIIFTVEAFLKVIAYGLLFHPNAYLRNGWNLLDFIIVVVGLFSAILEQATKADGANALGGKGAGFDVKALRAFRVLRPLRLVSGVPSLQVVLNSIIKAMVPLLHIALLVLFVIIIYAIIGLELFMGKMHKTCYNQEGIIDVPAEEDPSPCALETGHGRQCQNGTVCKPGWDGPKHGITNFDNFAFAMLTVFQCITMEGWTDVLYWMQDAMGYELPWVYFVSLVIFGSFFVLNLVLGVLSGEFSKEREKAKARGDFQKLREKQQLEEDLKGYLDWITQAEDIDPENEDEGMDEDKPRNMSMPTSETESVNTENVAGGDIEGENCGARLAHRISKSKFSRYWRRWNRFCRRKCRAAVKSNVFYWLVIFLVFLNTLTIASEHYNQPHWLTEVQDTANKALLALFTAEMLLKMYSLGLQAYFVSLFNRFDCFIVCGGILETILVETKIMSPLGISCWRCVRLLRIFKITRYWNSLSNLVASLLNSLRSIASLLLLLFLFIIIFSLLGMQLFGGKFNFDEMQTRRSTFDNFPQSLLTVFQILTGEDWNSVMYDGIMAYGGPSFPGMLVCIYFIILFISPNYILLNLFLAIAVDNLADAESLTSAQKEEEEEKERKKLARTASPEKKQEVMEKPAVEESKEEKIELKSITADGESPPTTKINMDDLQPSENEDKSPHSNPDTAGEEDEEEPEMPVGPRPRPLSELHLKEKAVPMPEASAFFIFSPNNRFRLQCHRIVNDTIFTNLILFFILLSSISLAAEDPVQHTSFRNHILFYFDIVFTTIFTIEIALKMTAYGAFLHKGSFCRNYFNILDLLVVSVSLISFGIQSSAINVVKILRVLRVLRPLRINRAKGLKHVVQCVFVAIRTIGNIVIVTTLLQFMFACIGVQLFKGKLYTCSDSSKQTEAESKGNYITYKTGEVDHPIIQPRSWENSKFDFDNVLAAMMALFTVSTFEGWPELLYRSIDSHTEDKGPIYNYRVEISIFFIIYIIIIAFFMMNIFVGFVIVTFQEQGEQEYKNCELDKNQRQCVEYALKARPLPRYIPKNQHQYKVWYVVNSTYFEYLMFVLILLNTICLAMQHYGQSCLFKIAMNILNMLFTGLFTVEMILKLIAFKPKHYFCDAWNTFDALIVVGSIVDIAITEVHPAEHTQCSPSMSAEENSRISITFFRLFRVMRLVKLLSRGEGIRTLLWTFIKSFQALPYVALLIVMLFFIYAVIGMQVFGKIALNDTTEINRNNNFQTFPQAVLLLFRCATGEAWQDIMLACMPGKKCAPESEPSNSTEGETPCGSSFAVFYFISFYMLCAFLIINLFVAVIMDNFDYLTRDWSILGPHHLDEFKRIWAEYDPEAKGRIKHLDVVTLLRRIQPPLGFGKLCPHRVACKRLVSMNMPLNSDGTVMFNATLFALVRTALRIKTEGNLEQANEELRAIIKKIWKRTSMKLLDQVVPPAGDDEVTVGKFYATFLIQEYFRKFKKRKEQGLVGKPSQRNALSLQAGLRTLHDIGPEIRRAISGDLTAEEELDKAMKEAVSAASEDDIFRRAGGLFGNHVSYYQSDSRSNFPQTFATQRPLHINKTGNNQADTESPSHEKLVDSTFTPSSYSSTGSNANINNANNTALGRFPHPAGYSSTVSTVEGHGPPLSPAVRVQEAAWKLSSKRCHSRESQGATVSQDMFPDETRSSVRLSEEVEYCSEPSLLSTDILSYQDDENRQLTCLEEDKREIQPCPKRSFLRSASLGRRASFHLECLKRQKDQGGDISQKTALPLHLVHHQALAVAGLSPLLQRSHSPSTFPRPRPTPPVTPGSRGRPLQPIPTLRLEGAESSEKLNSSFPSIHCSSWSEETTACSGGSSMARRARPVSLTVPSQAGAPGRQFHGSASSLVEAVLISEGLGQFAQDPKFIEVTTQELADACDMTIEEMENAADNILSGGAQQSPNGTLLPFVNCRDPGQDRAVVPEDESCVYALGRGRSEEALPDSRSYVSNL

Kb [2, 3] [nM] | SMILES | SHR mm Hg @ 10 mg/kg intravenous (blood pressure lowering) ([1]; SHR) | minimal effective dose ([1]; SHR) [mg/kg] | further results
– | C[C@](N)(Cc1ccc(O)c(O)c1)C(=O)O [Aldomet, reference compound] | – | – | activity in the hypertensive rat assay (in words) ([1]; SHR): active
– | NNc1nncc2ccccc12 [Apresoline, reference compound] | – | – | activity in the hypertensive rat assay (in words) ([1]; rat, in vivo): active
– | C[C@H](CS)C(=O)N1CCC[C@H]1C(=O)O [Captopril, reference compound] | – | – | activity in the hypertensive rat assay (in words) ([1]; SHR): active
– | Clc1cccc(Cl)c1N=C1NCCN1 [Clonidine, reference compound] | – | – | activity in the hypertensive rat assay (in words) ([1]; rat, in vivo): active
– | COc1ccc([C@@H]2Sc3ccccc3N(CCN(C)C)C(=O)[C@@H]2OC(C)=O)cc1 [Diltiazem, reference compound] | – | – | activity as vascular calcium antagonist (in words) [2]: active
– | CCOC(=O)c1cc(OCc2ccccc2)ccc1CN1CCC(C(c2ccccc2)c2ccccc2)CC1 [Example 2, ethyl 2-[[4-(diphenylmethyl)-1-piperidinyl]methyl]-5-(phenylmethoxy)benzoate] | inactive | – | pA2 (Ca++ Antagonism) [2, 3]: inactive
25.7 | COc1ccc(CN2CCC(C(c3ccccc3)c3ccccc3)CC2)cc1OCc1ccccc1 [Example 3, 4-(diphenylmethyl)-1-[[[4-methoxy-3-(phenylmethoxy)phenyl]methyl]piperidine, ethanedioate] | 79 mm Hg | 0.3 | –
186 | CC(C)(C)NC(=O)c1cc(OCc2ccccc2)ccc1CN1CCC(C(c2ccccc2)c2ccccc2)CC1 [Example 4, 2-[[4-(diphenylmethyl)-1-piperidinyl]methyl]-5-(phenylmethoxy)-N-(1,1-dimethylethyl) benzamide] | 29 mm Hg | 0.3 | –
– | Oc1ccc(CN2CCC(C(c3ccccc3)c3ccccc3)CC2)cc1 [Example 5, 4-[[4-(diphenylmethyl)-1-piperidinyl]methyl]phenol] | – | – | Oral Activity (Blood Pressure Lowering) ([1]; SHR): inactive
10.7 | c1ccc(COc2ccc(CN3CCC(C(c4ccccc4)c4ccccc4)CC3)cc2)cc1 [Example 6, 4-(diphenylmethyl)-1-[[4-(phenylmethoxy)phenyl]methyl] piperidine, hydrochloride] | 88 mm Hg | 0.3 | –
– | Cc1ccc(COc2ccc(CN3CCC(C(c4ccccc4)c4ccccc4)CC3)cc2)cc1 [Example 7, 4-(diphenylmethyl)-1-[[4-[(4-methylphenyl)methoxy]phenyl]methyl] piperidine, 2-butendioate] | 56 mm Hg | 1 | –
18.2 | COc1ccc(COc2ccc(CN3CCC(C(c4ccc(F)cc4)c4ccc(F)cc4)CC3)cc2)cc1 [Example 8] | 50 mm Hg | 1 | –
41.7 | COc1ccc(COc2ccc(CN3CCC(C(c4ccccc4)c4ccccc4)CC3)cc2)cc1 [Example 9, 4-(diphenylmethyl)-1-[[4-[(4-methoxyphenyl)methoxy]phenyl]methyl]piperidine] | – | – | –
26.9 | Fc1ccc(C(c2ccc(F)cc2)C2CCN(Cc3ccc(OCc4ccccc4)cc3)CC2)cc1 [Example 10, [bis(4-fluorophenyl)methyl]-1-[[4-(phenylmethoxy)phenyl]methyl]piperidine] | 67 mm Hg | 0.3 | –
8.71 | Fc1ccc(C(c2ccc(F)cc2)C2CCN(Cc3ccc(OCc4ccc(Cl)cc4)cc3)CC2)cc1 [Example 11, 4-[bis(4-fluorophenyl)methyl]-1-[[4-[(4-chlorophenyl)methoxy]phenyl]methyl]piperidine, hydrobromide] | 107 mm Hg | 0.3 | –
30.2 | Fc1ccc(C(c2ccc(F)cc2)C2CCN(Cc3ccc(OCc4ccc(Cl)cc4Cl)cc3)CC2)cc1 [Example 12, 4-[bis(4-fluorophenyl)methyl]-1-[[4-[(2,4-dichlorophenyl)methoxy]phenyl]methyl] piperidine, hydrochloride] | 79 mm Hg | 0.1 | –
12.9 | Fc1cccc(C(c2cccc(F)c2)C2CCN(Cc3ccc(OCc4ccccc4)cc3)CC2)c1 [Example 13] | inactive | – | Threshold Dose mg/kg intravenous ([1]; SHR): inactive
38.9 | Clc1ccc(COc2ccc(CN3CCC(C(c4ccccc4)c4ccccc4)CC3)cc2)cc1 [Example 14, 1-[[4-[(4-chlorophenyl)methoxy]phenyl]methyl]-4-(diphenylmethyl)piperidine] | – | – | Oral Activity (Blood Pressure Lowering) ([1]; SHR): active
– | Clc1ccc(COc2ccc(CN3CCC(C(c4ccccc4)c4ccccc4)CC3)cc2)cc1 [Example 15, 1-[[4-[(4-chlorophenyl)methoxy]phenyl]methyl]-4-(diphenylmethyl)piperidine, 2-butenedioate] | 89 mm Hg | 1 | –
– | Clc1ccc(COc2ccc(CN3CCC(C(c4ccccc4)c4ccccc4)CC3)cc2)cc1Cl [Example 16, 1-[[4-[(3,4-dichlorophenyl)methoxy]phenyl]methyl]-4-(diphenylmethyl)piperidine, 2-butenedioate] | 81 mm Hg | 0.3 | –
40.7 | Clc1ccc(COc2ccc(CN3CCC(C(c4ccccc4)c4ccccc4)CC3)cc2)c(Cl)c1 [Example 17, 1-[[4-[(2,4-dichlorophenyl)methoxy]phenyl]methyl]-4-(diphenylmethyl)piperidine] | inactive | – | Threshold Dose mg/kg intravenous ([1]; SHR): inactive
70.8 | Fc1ccccc1COc1ccc(CN2CCC(C(c3ccccc3)c3ccccc3)CC2)cc1 [Example 18, 4-(diphenylmethyl)-1-[[4-[(2-fluorophenyl)methoxy]phenyl]methyl]piperidine] | 65 mm Hg | 0.3 | Oral Activity (Blood Pressure Lowering) ([1]; SHR): active
457 | COc1ccc(CN2CCC(C(c3ccccc3)c3ccccc3)CC2)cc1OCc1ccc(Cl)cc1 [Example 19] | 75 mm Hg | 1 | –
44.7 | c1ccc(C(c2ccccc2)C2CCN(Cc3ccc(OCC4CCCCC4)cc3)CC2)cc1 [Example 20] | inactive | – | –
– | COc1cc(CN2CCC(C(c3ccccc3)c3ccccc3)CC2)ccc1OCc1ccccc1 [Example 21] | 18 mm Hg | 0.1 | Oral Activity (Blood Pressure Lowering) ([1]; SHR): active
– | COC(=O)C1=C(C)NC(C)=C(C(=O)OC)C1c1ccccc1[N+](=O)[O-] [Nifedipine, reference compound] | – | – | activity as vascular calcium antagonist (in words) [2]: active
– | COc1ccc(CCN(C)CCCC(C#N)(c2ccc(OC)c(OC)c2)C(C)C)cc1OC (stereo not shown) [Verapamil, reference compound] | – | – | activity as vascular calcium antagonist (in words) [2]: active
